“And” between values parts separate entries of the source, which are not always exact repeats. Equal entries are not always repeated. Inconclusive results and toxic doses are left out. Rule for the calls: active = survival T/C of 150% or more; inactive = T/C below 125% in these data.
System: P388 leukemia ip, CD2F1 mice, survival T/C
Assay: NCI In Vivo Anticancer Drug Screen. Data for tumor model P388 Leukemia (intraperitoneal) in CD2F1 (CDF1) mice
Conditions: endpoint: median survival time, higher = longer survival
Experimental: The antitumor activity of compounds was measured in mice bearing transplantable tumors. Survival or tumor size were measured and the results are expressed as the measurement made in the treated group (T) divided by the measurement made in the vehicle treated control group (C). The tumor model used in this assay is P388 Leukemia (intraperitoneal) in CD2F1 (CDF1) mice

[1] = dose: 100.0 mg/kg/injection, schedule: Q01DX009 (ip), vehicle: Klucel (hydroxypropylcellulose) (HPC)
[2] = dose: 200.0 mg/kg/injection, schedule: Q01DX009 (ip), vehicle: Klucel (hydroxypropylcellulose) (HPC)
[3] = dose: 100.0 mg/kg/injection, schedule: Q01DX001 (ip), vehicle: saline with Tween-80
[4] = dose: 50.0 mg/kg/injection, schedule: Q01DX009 (ip), vehicle: saline
[5] = dose: 50.0 mg/kg/injection, schedule: Q01DX005 (ip), vehicle: saline with Tween-80
[6] = dose: 100.0 mg/kg/injection, schedule: Q01DX005 (ip), vehicle: saline with Tween-80
[7] = dose: 200.0 mg/kg/injection, schedule: Q01DX005 (ip), vehicle: saline with Tween-80
[8] = dose: 50.0 mg/kg/injection, schedule: Q01DX009 (ip), vehicle: Klucel (hydroxypropylcellulose) (HPC)
[9] = dose: 60.0 mg/kg/injection, schedule: Q01DX005 (ip), vehicle: saline with Tween-80
[10] = dose: 120.0 mg/kg/injection, schedule: Q01DX005 (ip), vehicle: saline with Tween-80
[11] = dose: 240.0 mg/kg/injection, schedule: Q01DX005 (ip), vehicle: saline with Tween-80
[12] = dose: 50.0 mg/kg/injection, schedule: Q01DX005 (ip), vehicle: Klucel (hydroxypropylcellulose) (HPC)
[13] = dose: 100.0 mg/kg/injection, schedule: Q01DX005 (ip), vehicle: Klucel (hydroxypropylcellulose) (HPC)
[14] = dose: 200.0 mg/kg/injection, schedule: Q01DX005 (ip), vehicle: Klucel (hydroxypropylcellulose) (HPC)
[15] = dose: 200.0 mg/kg/injection, schedule: Q01DX001 (ip), vehicle: saline with Tween-80
[16] = dose: 400.0 mg/kg/injection, schedule: Q01DX001 (ip), vehicle: saline with Tween-80

Measured: T/C

O=C1C=C(NC(=O)C(F)(F)F)C(=O)c2c1[nH]c(=O)[nH]c2=O
inactive: dose: 6.25 mg/kg/injection, schedule: Q01DX005 (ip), vehicle: DMSO 109 % of control | dose: 12.5 mg/kg/injection, schedule: Q01DX005 (ip), vehicle: DMSO 103 % of control | dose: 25.0 mg/kg/injection, schedule: Q01DX005 (ip), vehicle: DMSO 103 % of control | dose: 50.0 mg/kg/injection, schedule: Q01DX005 (ip), vehicle: DMSO 110 % of control | dose: 50.0 mg/kg/injection, schedule: Q01DX005 (ip), vehicle: other 98 % of control | dose: 100.0 mg/kg/injection, schedule: Q01DX005 (ip), vehicle: other 104 % of control | dose: 200.0 mg/kg/injection, schedule: Q01DX005 (ip), vehicle: other 101 % of control

O=c1c2ccccc2sc2c1c(N(CCO)CCO)cc1ccccc12
inactive: dose: 25.0 mg/kg/injection, schedule: Q01DX005 (ip), vehicle: distilled water + Tween-80 102 % of control | dose: 50.0 mg/kg/injection, schedule: Q01DX005 (ip), vehicle: distilled water + Tween-80 97 % of control | dose: 100.0 mg/kg/injection, schedule: Q01DX005 (ip), vehicle: distilled water + Tween-80 92 % of control

CCOC(=O)/C(=C/c1ccco1)C(C)=O
inactive: [1] 102 % of control | [2] 110 % of control

Nc1cc(Cl)c2[nH]c(-c3ccccc3)nc2n1
inactive: dose: 50.0 mg/kg/injection, schedule: Q01DX001 (ip), vehicle: saline with Tween-80 96 % of control | [3] 94 % of control

N#Cc1cc(Br)ccc1N
inactive: [4] 105 % of control | dose: 100.0 mg/kg/injection, schedule: Q01DX009 (ip), vehicle: saline 107 % of control | dose: 200.0 mg/kg/injection, schedule: Q01DX009 (ip), vehicle: saline 96 % of control

Cc1ccc(N)c(C(=O)Nc2ccc(Br)cc2)c1
inactive: [5] 101 % of control | [6] 101 % of control | [7] 95 % of control

CCCCCCC(O)/C=C/c1ccc(N(C)C)cc1 (centres undefined)
inactive: [8] 103 % of control | [1] 99 % of control | [2] 102 % of control

CC1(C)COC1(c1ccccc1)c1cccnc1 (centres undefined)
inactive: [9] 97 % of control | [10] 102 % of control | [11] 93 % of control

CCNC(=O)CCC(NS(=O)(=O)c1ccc(C)cc1)C(=O)O (centres undefined)
inactive: dose: 100.0 mg/kg/injection, schedule: Q04DX002 (ip), vehicle: Klucel (hydroxypropylcellulose) (HPC) 100 % of control | dose: 200.0 mg/kg/injection, schedule: Q04DX002 (ip), vehicle: Klucel (hydroxypropylcellulose) (HPC) 100 % of control | dose: 400.0 mg/kg/injection, schedule: Q04DX002 (ip), vehicle: Klucel (hydroxypropylcellulose) (HPC) 105 % of control

N#CNC(=S)SCC(N)=O
inactive: [12] 100 % of control | [13] 100 % of control | [14] 102 % of control

COn1nnc2cc(Cl)ccc21
inactive: dose: 100.0 mg/kg/injection, schedule: Q04DX002 (ip), vehicle: saline with Tween-80 107 % of control | dose: 200.0 mg/kg/injection, schedule: Q04DX002 (ip), vehicle: saline with Tween-80 98 % of control | dose: 400.0 mg/kg/injection, schedule: Q04DX002 (ip), vehicle: saline with Tween-80 98 % of control

O=C1C2C3C=CC(C2C(=O)N1c1ccccc1)C1C2C(=O)N(c4ccccc4)C(=O)C2C31 (centres undefined)
inactive: [3] 88 % of control | [15] 89 % of control | [16] 93 % of control

CC(/C=N\Nc1ccc(Cl)cc1)=N/NC(=S)NCC(C)C
inactive: [3] 103 % of control | [15] 100 % of control | [16] 94 % of control

COC1CCC2C(C1)C(C1CCCCC1)C1CCCCC1C2C1CCCCC1 (centres undefined)
inactive: [5] 96 % of control | [6] 93 % of control | [7] 95 % of control

COc1ccc(/C=N/Nc2nnc3c4ccccc4c4ccccc4c3n2)cc1
inactive: dose: 50.0 mg/kg/injection, schedule: Q04DX003 (ip), vehicle: saline 89 % of control | dose: 100.0 mg/kg/injection, schedule: Q04DX003 (ip), vehicle: saline 93 % of control | dose: 200.0 mg/kg/injection, schedule: Q04DX003 (ip), vehicle: saline 92 % of control

CCN(CC)c1ccc2nc3ccc(N=Nc4ccc(O)cc4)cc3[n+](-c3ccccc3)c2c1
inactive: [5] 118 % of control | [6] 114 % of control

CC(=O)NC(CC(C)C)C(=O)O (centres undefined)
inactive: dose: 25.0 mg/kg/injection, schedule: Q01DX009 (ip), vehicle: saline with Tween-80 95 % of control | dose: 50.0 mg/kg/injection, schedule: Q01DX009 (ip), vehicle: saline with Tween-80 86 % of control and 94 % of control | [1] 104 % of control | dose: 100.0 mg/kg/injection, schedule: Q01DX009 (ip), vehicle: saline with Tween-80 100 % of control and 105 % of control | [2] 114 % of control | dose: 200.0 mg/kg/injection, schedule: Q01DX009 (ip), vehicle: saline with Tween-80 118 % of control | dose: 400.0 mg/kg/injection, schedule: Q01DX009 (ip), vehicle: Klucel (hydroxypropylcellulose) (HPC) 100 % of control | dose: 400.0 mg/kg/injection, schedule: Q01DX009 (ip), vehicle: saline with Tween-80 105 % of control

COc1cc(CC(=O)NCCc2ccsc2)c(CO)cc1OCc1ccccc1
inactive: dose: 100.0 mg/kg/injection, schedule: Q01DX001 (ip), vehicle: Klucel (hydroxypropylcellulose) (HPC) 99 % of control | dose: 200.0 mg/kg/injection, schedule: Q01DX001 (ip), vehicle: Klucel (hydroxypropylcellulose) (HPC) 101 % of control | dose: 400.0 mg/kg/injection, schedule: Q01DX001 (ip), vehicle: Klucel (hydroxypropylcellulose) (HPC) 101 % of control

OCC1OC(O)C(N=Cc2ccc3c(c2)OCO3)C(O)C1O (centres undefined)
inactive: [5] 104 % of control | [6] 100 % of control | [7] 102 % of control

CC(NC(=O)/C=C/c1ccco1)C(=O)NC(Cc1ccccc1)C(N)=O (centres undefined)
inactive: [12] 104 % of control | [13] 106 % of control | [14] 104 % of control

Nc1nc(-c2ccc(Cl)c(Cl)c2)cc(-c2cc(-c3ccc(Cl)c(Cl)c3)nc(N)n2)n1
inactive: [9] 96 % of control | [10] 95 % of control | [11] 95 % of control

O=C1C=CC2(CC=CCC2)CC1 (centres undefined)
inactive: dose: 6.25 mg/kg/injection, schedule: Q01DX009 (ip), vehicle: Klucel (hydroxypropylcellulose) (HPC) 110 % of control | dose: 12.5 mg/kg/injection, schedule: Q01DX008 (ip), vehicle: Klucel (hydroxypropylcellulose) (HPC) 101 % of control | dose: 12.5 mg/kg/injection, schedule: Q01DX009 (ip), vehicle: Klucel (hydroxypropylcellulose) (HPC) 108 % of control | dose: 25.0 mg/kg/injection, schedule: Q01DX008 (ip), vehicle: Klucel (hydroxypropylcellulose) (HPC) 100 % of control | dose: 25.0 mg/kg/injection, schedule: Q01DX009 (ip), vehicle: Klucel (hydroxypropylcellulose) (HPC) 100 % of control | [8] 121 % of control | [1] 109 % of control | [2] 110 % of control

CC(C)(C(=O)O)C(C)(C)C(=O)O
inactive: dose: 1.56 mg/kg/injection, schedule: Q01DX001 (ip), vehicle: saline 102 % of control | dose: 3.12 mg/kg/injection, schedule: Q01DX001 (ip), vehicle: saline 101 % of control

O=C1COCC(=O)OCCOCCOCCOCCO1
inactive: dose: 100.0 mg/kg/injection, schedule: Q04DX003 (ip), vehicle: Klucel (hydroxypropylcellulose) (HPC) 99 % of control | dose: 200.0 mg/kg/injection, schedule: Q04DX003 (ip), vehicle: Klucel (hydroxypropylcellulose) (HPC) 102 % of control | dose: 400.0 mg/kg/injection, schedule: Q04DX003 (ip), vehicle: Klucel (hydroxypropylcellulose) (HPC) 99 % of control

COc1cccc(CN2CCNCC2)c1
inactive: dose: 6.25 mg/kg/injection, schedule: Q01DX009 (ip), vehicle: water 90 % of control | dose: 12.5 mg/kg/injection, schedule: Q01DX009 (ip), vehicle: water 94 % of control | dose: 25.0 mg/kg/injection, schedule: Q01DX009 (ip), vehicle: water 93 % of control | dose: 50.0 mg/kg/injection, schedule: Q01DX009 (ip), vehicle: water 94 % of control

Oc1[nH]c2ccccc2c1N=NC(=S)SCc1ccccc1
inactive: dose: 12.5 mg/kg/injection, schedule: Q01DX009 (ip), vehicle: saline 89 % of control | dose: 25.0 mg/kg/injection, schedule: Q01DX009 (ip), vehicle: saline 87 % of control | [4] 90 % of control
